Paper PMC4920673, “Nitroimidazole carboxamides as antiparasitic agents targeting Giardia lamblia, Entamoeba histolytica and Trichomonas vaginalis” (European Journal of Medicinal Chemistry, 2016)
Values after ≈ are worked out from the molar mass of the structure shown. Like-named read-outs stand apart in the source and are kept apart here.

How the values were obtained:
G. lamblia WB (MtzS) = experiment: ATP-bioluminescence growth/survival EC50 assay, G. lamblia WB; conditions: for EC50: Giardia duodenalis; for S.I (CC50/EC50): average cytotoxicity against HEK293 and HepG2 / G. lamblia WB activity
Method: (§1) Compounds were screened for antiparasitic activity using an ATP-bioluminescence based assay for cell growth and survival, [24]. […] Viable cell numbers were determined in triplicate using the CellTiter-Glo Luminescent Cell Viability Assay.

G. lamblia 713M3 (MtzR) = experiment: ATP-bioluminescence growth/survival EC50 assay, G. lamblia 713M3; format: cell-based, Giardia lamblia; conditions: Giardia duodenalis
Method: as §1

E. histolytica HM1:IMSS = experiment: ATP-bioluminescence growth/survival EC50 assay, E. histolytica; format: cell-based, Entamoeba histolytica; conditions: Entamoeba histolytica
Method: as §1

T. vaginalis F1623 = experiment: ATP-bioluminescence growth/survival EC50 assay, T. vaginalis; format: cell-based, Trichomonas vaginalis; conditions: Trichomonas vaginalis
Method: as §1

[1] = test system: C. difficile 630 (ATCC BAA-1382); experiment: Broth microdilution MIC assay, C. difficile 630; format: cell-based, Clostridium difficile; conditions: Clostridioides difficile, ATCCBAA1382
How it was run: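 Compounds two-fold serially diluted against overnight anaerobic BHIS cultures of the strain, following CLSI methods modified in broth and inoculum for C. difficile. Plates incubated 24 h at 37 °C; MIC is the lowest concentration without visible growth, median reported with range.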

[2] = test system: C. difficile NAP1/027 (ATCC BAA-1803); experiment: Broth microdilution MIC assay, C. difficile NAP1/027; format: cell-based, Clostridium difficile; conditions: Clostridioides difficile, ATCCBAA1803; strain NAP1/027
How it was run: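 Strains grown anaerobically in BHIS at 37 °C overnight; compounds two-fold serially diluted (64 to 0.03 μg/mL) in pre-reduced medium under anaerobic atmosphere (5% H2, 10% CO2, 85% N2). Plates incubated 24 h at 37 °C; MIC taken as lowest concentration without visible growth, median of replicates reported.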

[3] = Resazurin cytotoxicity assay, HEK293; format: cell-based, Human; conditions: human, 24 h, highest concentration 100 μM, n = 3, read-out: CC50 HEK 293
How it was run: (§2)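 Cells pre-cultured 24 h in DMEM/10% FBS at 37 °C, then exposed 24 h to compound dilution series (top 100 μM). Viability by 5 μM resazurin, 2 h, fluorescence 560/590 nm; 1% Triton X-100 as lysis control; CC50 from curve fitting.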

[4] = Resazurin cytotoxicity assay, HepG2; format: cell-based, Human; conditions: human, 24 h, highest concentration 100 μM, n = 3, read-out: CC50 Hep G2
How it was run: as §2

[5] = Plasma protein binding by ultrafiltration; format: in vitro ADME; conditions: human
Method: Plasma Protein Binding (PPB) was performed using an Ultrafiltration method, [28]. […] Samples were incubated at […] for 30 min, then centrifuged at 14,000 × g for 8 min, with the clear supernatant transferred to a vial for LC/MS/MS analysis. […] The fraction of unbound compound was calculated by determining the concentration of the filtered sample and the concentration of unfiltered sample. […] LC/MS/MS parameters are detailed in the supplementary information (Supplementary Table 1).

[6] = Metabolic stability in liver microsomes; format: in vitro ADME, human
Method: Metabolic stability studies were performed with human liver microsomes (HMMC-PL, Lot# PL050B-B, Thermo Fisher Scientific USA) with test compound (5 μM) degradation monitored by LC/MS/MS analysis. Stock solutions (2.5 mM) of the test compounds were prepared in DMSO. […] The reaction was initiated by addition of NADPH solution (cofactor) in potassium phosphate buffer (final concentration 1 mM). Aliquots (180 μL) from the reaction mixture were withdrawn (t = 0, 10, 30, 60 and 120 min) and quenched by adding ice-cold stop solution (540 μL) comprising 0.5 μM carbutamide internal standard in acetonitrile: methanol: formic acid (1: 1: 0.001). Reaction samples were incubated at 4 °C for 30 min, centrifuged at 14,000 × g for 8 min and the clear supernatant was transferred to a vial for LC/MS/MS analysis. The percentage of compound metabolised at different times was calculated as a percentage of the levels at the start of incubation (t = 0 min sample). Matrix blank was also prepared as a control. […] LC/MS/MS parameters are detailed in the supplementary information (Supplementary Table 1).

[7] = test system: G. lamblia WB trophozoites; experiment: Light microscopy of G. lamblia WB growth and survival; format: cell-based, Giardia lamblia; conditions: for Parasite cell growth by microscopy: 3 × EC50 (metronidazole 18 μM, 12a 1.5 μM), 48 h, relative to vehicle control; for Morphology of treated G. lamblia: 3 × EC50, 48 h, phase contrast
Method: The effect of compounds on G. lamblia WB growth and survival was examined by light microscopy. Briefly, stock compounds were diluted in DMSO (100%) to give 400 × final concentration of compound. […]. Assay plates were incubated for 48 h at 37 °C in the GasPak™ EZ Anaerobe Gas Generating Pouch Systems (VWR, West Chester, PA) to maintain anaerobic conditions throughout the incubation period. The assays were performed in triplicate (3 wells/treatment). […]

giardiasis = conditions: cited from earlier work
[8] = cited from earlier work
Giardia = test system: Giardia; design: method as in PMID 23403423; conditions: cited from earlier work
T. vaginalis = test system: T. vaginalis; design: method as in earlier work; conditions: cited from earlier work
H. meleagridis = test system: H. meleagridis; design: method as in earlier work; conditions: turkey; cited from earlier work
[9] = read-out: EC50 G. lamblia WB, MtzS strain WB, minimum n = 3
[10] = read-out: pEC50 ± SE G. lamblia WB, MtzS strain WB (converted)
[11] = read-out: EC50 G. lamblia 713M3, MtzR strain 713M3, minimum n = 3
[12] = read-out: pEC50 ± SE G. lamblia 713M3, MtzR strain 713M3 (converted)
[13] = strain 630, MtzS, median of n = 4, read-out: MIC C. difficile 630
[14] = read-out: EC50 E. histolytica HM1:IMSS
[15] = read-out: pEC50 ± SE E. histolytica HM1:IMSS (converted)
[16] = read-out: EC50 T. vaginalis F1623, MtzS, minimum n = 3
[17] = read-out: pEC50 ± SE T. vaginalis F1623, MtzS (converted)
[18] = 5 μM, human liver microsomes 1 mg/mL, NADPH

SMILES	EC50 (G. lamblia WB (MtzS); [9])	EC50 (G. lamblia WB (MtzS); [10])	EC50 (G. lamblia 713M3 (MtzR); [11])	EC50 (G. lamblia 713M3 (MtzR); [12])	MIC [1, 13]	MIC [2]	CC50 at 24 h ([3]; HEK293 cells)	CC50 at 24 h ([4]; HepG2 cells)	S.I (CC50/EC50) (G. lamblia WB (MtzS))	EC50 (E. histolytica HM1:IMSS; [14])	EC50 (E. histolytica HM1:IMSS; [15])	EC50 (T. vaginalis F1623; [16])	EC50 (T. vaginalis F1623; [17])	further results
Cc1ncc([N+](=O)[O-])n1CCO [Compound 1, Metronidazole, reference compound]	6.1 µM	6.17 µM	18 µM	18.2 µM	0.5 µg/mL (≈ 2.92 µM)	0.5 µg/mL (≈ 2.92 µM)	> 100 µM	> 100 µM						EC50 (G. lamblia WB (MtzS); read-out: EC50 against G. lamblia strains, G. lamblia strains including metronidazole-resistant strains, stated together): 6.1 to 18 µM; EC50 (E. histolytica HM1:IMSS; MtzS, minimum n = 3, read-out: EC50 E. histolytica HM1:IMSS): 5 µM; EC50 (E. histolytica HM1:IMSS; MtzS, read-out: pEC50 ± SE E. histolytica HM1:IMSS (converted)): 5.01 µM; EC50 (T. vaginalis F1623; MtzS, minimum n = 3, read-out: EC50 T. vaginalis F1623): 0.8 µM; EC50 (T. vaginalis F1623; MtzS, read-out: pEC50 ± SE T. vaginalis F1623 (converted)): 0.794 µM; MIC ([1]; 630 and NAP1/027 strains together or strain not given, read-out: MIC C. difficile): 0.5 µg/mL (≈ 2.92 µM); fraction unbound at 30 min, 5 μM ([5]; plasma, Plasma protein binding (% bound)): > 0.95; Microsome stability (% remaining at 2 h) ([6]; human, microsomes): 100 % remaining; Parasite cell growth by microscopy [7]: inhibited; Morphology of treated G. lamblia [7]: remained similar to the vehicle control; Treatment failure in giardiasis cases (giardiasis): up to 20%; Plasma protein binding [8]: mostly unbound; Effect on Giardia cells in prior study (Giardia): slowed the rate of oscillation of the Giardia flagella
CCS(=O)(=O)CCn1c([N+](=O)[O-])cnc1C [Compound 2, tinidazole]														Plasma protein binding [8]: mostly unbound
CN(C)C(=O)c1ncc([N+](=O)[O-])n1C [Compound 8g, N,N,1-trimethyl-5-nitro-1H-imidazole-2-carboxamide]	2.4 µM	2.4 µM	> 20 µM	> 20 µM	32 µg/mL (≈ 161 µM)	64 µg/mL (≈ 323 µM)	> 100 µM	> 100 µM	>42	14 µM	14.1 µM	1.3 µM	1.29 µM	Activity in in vivo mouse model of T. vaginalis infection (T. vaginalis): activity; Activity in in vivo model of H. meleagridis infection (H. meleagridis): activity
Cn1c([N+](=O)[O-])cnc1C(=O)N1CCOCC1 [Compound 8h, (1-methyl-5-nitro-1H-imidazol-2-yl)(morpholino)methanone]	1.6 µM	1.58 µM	11 µM	11.2 µM	32 µg/mL (≈ 133 µM)	32 µg/mL (≈ 133 µM)	> 100 µM	> 100 µM	>63	14 µM	14.1 µM	0.6 µM	0.575 µM	fraction unbound at 0.5 h, 5 µM ([5]; pooled human plasma (100%), 5 μM, 100% human plasma, 37 °C, 30 min, ultrafiltration, read-out: Plasma protein binding (% bound) (converted)): 0.91; Microsome stability (% remaining at 2 h) [6, 18]: 97 % remaining; Activity in in vivo mouse model of T. vaginalis infection (T. vaginalis): activity; Activity in in vivo model of H. meleagridis infection (H. meleagridis): activity
O=C(NCc1ccc(F)cc1)c1ncc([N+](=O)[O-])[nH]1 [Compound 12a, N-(4-fluorobenzyl)-5-nitro-1H-imidazole-2-carboxamide]	0.5 µM	0.525 µM	2.4 µM	2.34 µM	4 µg/mL (≈ 15.1 µM)	4 µg/mL (≈ 15.1 µM)				3.6 µM	3.63 µM	2.3 µM	2.34 µM	CC50 at 24 h [3]: > 100 µM; CC50 at 24 h [4]: > 100 µM; Microsome stability (% remaining at 2 h) [6, 18]: 94 % remaining; Parasite cell growth by microscopy [7]: inhibited; Morphology of treated G. lamblia [7]: altered
CCOC(=O)c1nc([N+](=O)[O-])cn1Cc1ccc(OC(F)(F)F)cc1 [Compound 14c, Ethyl 4-nitro-1-(4-(trifluoromethoxy)benzyl)-1H-imidazole-2-carboxylate]	6 µM	6.03 µM			> 64 µg/mL	> 64 µg/mL			>17	51 µM	51.3 µM			CC50 at 24 h [3]: > 100 µM; CC50 at 24 h [4]: > 100 µM; melting point: 112 °C
CC(=O)OC[C@H]1O[C@@H]([S-])[C@H](OC(C)=O)[C@@H](OC(C)=O)[C@@H]1OC(C)=O.CCP(CC)CC.[Au+] [auranofin]														Effect on Giardia cells in prior study (Giardia): caused cell blebbing
O=C(Nc1ncc([N+](=O)[O-])s1)c1ccccc1O [tizoxanide]														Plasma protein binding ([8]; active metabolite of nitazoxanide): highly plasma protein bound
